Results from patent US20250144032A1, “POLY(BETA-AMINO ESTER) MICROPARTICLES FOR MICRONUTRIENT FORTIFICATION” (Massachusetts Institute of Technology, priority 2021, published 2025).

Assay: Boiling stability of micronutrients in water at 100 °C (simulated cooking)
Format: physicochemical
Method: To evaluate the effects on VA stabilization, VA (10% wt) was encapsulated with MPs fabricated from PAE_C, PAE_D, or PAE_E. The resulting MPs were tested in boiling water for 2 hours.
The boiling stability of micronutrients in PAE MP was studied in water at 100° C. At each time point, samples were lyophilized to obtain the boiled product.
High-performance liquid chromatography (HPLC), inductively coupled plasma-optical emission spectrometer (ICP-OES), and colorimetric assay kits were used for micronutrient quantification.

VA recovered after boiling for 0.5 h: less than 20%
SMILES: CCCCCCCCCCCCCCCC(=O)OC/C=C(C)/C=C/C=C(C)/C=C/C1=C(C)CCCC1(C)C [VA, retinyl palmitate]
